In patent US11964988B2, “Fused heterocyclic compounds as RET kinase inhibitors” (ARRAY BIOPHARMA INC., priority 2018, dated 2024) one finds IC50 data, which are given here for 13 molecules.

One assay has as its target RET kinase V804M (Homo sapiens, UniProt P07949, V804M). As to the kind of experiment: RET Enzyme Assay (CisBio HTRF KinEASE-TK), V804M. The conditions noted are these: read-out: RET V804M Enz FRET IC50. It is filed as biochemical. Background: Time-resolved FRET reads energy transfer from a long-lived donor to a nearby acceptor.
Another assay deals with RET kinase Wild Type (Homo sapiens, UniProt P07949). In words: biochemical.
RET kinase Wild Type, sequence (P07949 29-1114): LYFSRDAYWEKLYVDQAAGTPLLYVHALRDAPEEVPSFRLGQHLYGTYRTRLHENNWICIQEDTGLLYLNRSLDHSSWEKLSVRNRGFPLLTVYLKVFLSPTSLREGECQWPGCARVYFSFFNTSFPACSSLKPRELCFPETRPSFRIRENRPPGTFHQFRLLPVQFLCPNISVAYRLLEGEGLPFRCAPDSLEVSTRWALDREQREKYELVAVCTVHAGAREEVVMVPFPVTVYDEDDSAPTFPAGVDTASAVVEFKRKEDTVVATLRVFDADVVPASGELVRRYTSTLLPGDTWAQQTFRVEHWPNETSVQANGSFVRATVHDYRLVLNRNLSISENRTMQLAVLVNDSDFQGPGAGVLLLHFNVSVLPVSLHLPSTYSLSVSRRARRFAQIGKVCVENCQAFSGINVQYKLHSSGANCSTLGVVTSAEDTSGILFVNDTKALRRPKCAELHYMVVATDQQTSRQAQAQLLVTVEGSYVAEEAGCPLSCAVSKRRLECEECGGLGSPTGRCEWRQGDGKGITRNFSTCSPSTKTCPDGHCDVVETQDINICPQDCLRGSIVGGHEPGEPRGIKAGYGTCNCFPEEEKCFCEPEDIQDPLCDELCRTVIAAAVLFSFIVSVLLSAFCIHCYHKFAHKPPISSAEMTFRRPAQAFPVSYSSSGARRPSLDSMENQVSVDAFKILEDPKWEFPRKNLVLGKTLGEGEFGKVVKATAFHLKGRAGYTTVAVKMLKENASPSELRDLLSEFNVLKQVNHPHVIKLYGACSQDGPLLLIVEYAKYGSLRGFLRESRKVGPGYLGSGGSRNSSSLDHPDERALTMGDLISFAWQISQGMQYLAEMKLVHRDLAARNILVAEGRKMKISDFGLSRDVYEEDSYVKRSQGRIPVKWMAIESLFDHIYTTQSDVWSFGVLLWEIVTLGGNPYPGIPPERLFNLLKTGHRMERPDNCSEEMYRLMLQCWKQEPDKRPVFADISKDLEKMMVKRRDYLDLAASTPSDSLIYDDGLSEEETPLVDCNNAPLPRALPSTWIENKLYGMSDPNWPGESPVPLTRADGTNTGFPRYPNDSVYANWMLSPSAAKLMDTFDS
The target of assay [1] is T1, HEK-293 cells expressing a G810R mutant RET Kif5b-RET fusion protein (Homo sapiens, UniProt P07949, G810R).
T1 construct: KIF5B (N-terminal portion incl. coiled-coil); expressed in transfected cells; host or cells: HEK-293; the other entry of the earlier key: KIF5B (P33176, Kinesin-1 heavy chain)
T1 sequence (P07949 713-1063 G810R limits assumed): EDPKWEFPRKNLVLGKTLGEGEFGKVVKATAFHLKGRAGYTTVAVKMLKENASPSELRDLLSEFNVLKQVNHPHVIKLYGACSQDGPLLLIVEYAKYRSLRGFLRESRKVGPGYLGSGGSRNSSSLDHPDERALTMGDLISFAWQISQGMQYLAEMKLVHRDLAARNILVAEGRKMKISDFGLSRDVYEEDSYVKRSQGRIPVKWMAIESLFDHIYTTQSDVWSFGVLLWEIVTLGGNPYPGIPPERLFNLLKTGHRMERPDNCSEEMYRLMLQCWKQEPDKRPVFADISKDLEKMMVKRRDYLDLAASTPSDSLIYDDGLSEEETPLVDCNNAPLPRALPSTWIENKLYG
In words: RET G810R Mutant Cell Assay (phospho-RET Tyr1062). Particulars: HEK-293 Kif5b-RET G810R, 1 hour incubation, phospho-RET normalized to GAPDH. It is filed as cell-based. The gist of the method:
(§1)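 Signals came from in-cell immunostaining of fixed, methanol-permeabilized HEK-293 fusion-expressing cells exposed 1 h to compound in DMEM with 0.5% DMSO.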

Assay [2] concerns the target T2, HEK-293 cells expressing a Kif5b-RET fusion protein (Homo sapiens, UniProt P07949).
T2 construct: KIF5B (N-terminal portion incl. coiled-coil); expressed in transfected cells; host or cells: HEK-293; the other entry of the earlier key: KIF5B (P33176, Kinesin-1 heavy chain)
T2 sequence (P07949 713-1063 limits assumed): T1 sequence (P07949 713-1063 G810R limits assumed) with R98G
In words: RET Cell Assay (phospho-RET Tyr1062). It is filed as cell-based. The conditions noted are these: HEK-293 Kif5b-RET, 1 hour incubation, phospho-RET normalized to GAPDH; read-out: KIF5B-RET pTYR1062 Cell IC50. The method, boiled down:
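Phospho-RET (Tyr1062) to GAPDH ratio read by in-cell fluorescent immunodetection after 1 hour compound exposure in DMEM, 0.5% DMSO. Cells: HEK-293 carrying Kif5b-RET fusion. POC data fit to a 4-parameter logistic curve, IC50 taken at 50 POC.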

The target of the next assay is G810S mutant RET kinase (Homo sapiens, UniProt P07949, G810S). In words: biochemical.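 Note: HTRF KinEASE-TK kinase assay with recombinant enzyme, 1 h at 22 °C, dual-wavelength ratiometric read-out, percent of control (DMSO-only = 100, pre-quenched reaction = 0).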
G810S mutant RET kinase, sequence (P07949 29-1114 G810S): as the sequence (P07949 29-1114) above, with G782S counted along it
The target of a further assay is G810R mutant RET kinase (Homo sapiens, UniProt P07949, G810R). In words: biochemical.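 Note: HTRF KinEASE-TK enzymatic assay with 1 nM recombinant RET G810R, 1 h at 22 °C, dual-wavelength ratiometric readout, 100% control without compound, 0% from pre-quenched reactions.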
G810R mutant RET kinase, sequence (P07949 29-1114 G810R): as the sequence (P07949 29-1114) above, with G782R counted along it
Assay [3] concerns the target T3, HEK-293 cells expressing a G810S mutant RET Kif5b-RET fusion protein (Homo sapiens, UniProt P07949, G810S).
T3 construct: KIF5B (N-terminal portion incl. coiled-coil); expressed in transfected cells; host or cells: HEK-293
T3 sequence (P07949 713-1063 G810S limits assumed): T1 sequence (P07949 713-1063 G810R limits assumed) with R98S
As to the kind of experiment: RET G810S Mutant Cell Assay (phospho-RET Tyr1062). It is filed as cell-based. The conditions noted are these: HEK-293 Kif5b-RET G810S, 1 hour incubation, phospho-RET normalized to GAPDH. The gist of the method: as §1

Changes are numbered by the printed parent chain.

RET kinase V804M, sequence (P07949 29-1114 V804M): as the sequence (P07949 29-1114) above, with V776M counted along it
Protocol for G810S mutant RET kinase: The potency of compounds inhibiting several different RET kinase forms (Wild Type, V804M, G810R, & G810S) were determined using CisBio's HTRF® KinEASE™-TK assay technology. […] After a 1 hour incubation at 22° C., the extent of reaction was determined using a PerkinElmer EnVision multimode plate reader via HTRF dual wavelength detection, and the percent of control (POC) was calculated using a ratiometric emission factor. One hundred POC was determined using DMSO only samples (no compound present), and 0 POC was determined using pre-quenched control reactions.
The potency of a compound inhibiting G810R or G810S mutant RET kinase was determined using CisBio's HTRF® KinEASE™-TK assay technology. The assays contained G810R or G810S mutant RET produced at Array Biopharma, Inc. (1 nM enzyme). […] After a 1-h incubation at 22° C., the extent of reaction was determined using a PerkinElmer EnVision multimode plate reader via HTRF dual wavelength detection, and the percent of control (POC) was calculated using a ratiometric emission factor. One hundred POC was determined using no test compounds, and 0 POC was determined using pre-quenched control reactions.

In the case of `CC1Cc2c(c3c(N)ncnc3n2C(C)C)-c2noc(C3CC3)c2C1O` (stereo not shown) [Example 61, 11-amino-3-cyclopropyl-7-isopropyl-5-methyl-4,5,6,7-tetrahydroisoxazolo[4″,3″:6′,7′]cyclohepta[1′,2′:4,5]pyrrolo[2,3-d]pyrimidin-4-ol], the IC50 stood at 136 nM at RET kinase V804M; 31 nM against RET kinase Wild Type; 281 nM in assay [1]; 33 nM in assay [2]; 58 nM at G810S mutant RET kinase; 89 nM at G810R mutant RET kinase. Moreover, half-maximal inhibition in assay [3] (IC50) required 101 nM.
Regarding `C[C@@H](n1c2c(c3c(N)ncnc31)-c1noc(C3CC3)c1[C@H](O)CC2)C(F)(F)F` (single isomer, unassigned) [Example 147, 2,2,2-trifluoroacetate], the IC50 on RET kinase V804M turned out to be 32 nM; against RET kinase Wild Type, 14 nM; in assay [1], 56 nM; in assay [2], 21 nM; on G810S mutant RET kinase, 94 nM; against G810R mutant RET kinase, 74 nM. Also, the half-maximal inhibitory concentration (IC50) in assay [3] came out at 90 nM.
Take `Nc1ncnc2c1c1c(n2-c2ccccc2)CCC(O)c2c-1noc2C1CC1` (stereo not shown) [Example 118, 11-Amino-3-cyclopropyl-7-phenyl-4,5,6,7-tetrahydroisoxazolo[4″,3″:6′,7′]cyclohepta[1′,2′:4,5]pyrrolo[2,3-d]pyrimidin-4-ol 2,2,2-trifluoroacetate]: the half-maximal inhibitory concentration (IC50) on RET kinase V804M was 99 nM; against RET kinase Wild Type, 131 nM; in assay [1], 206 nM; in assay [2] it was 125 nM; against G810S mutant RET kinase, 75 nM; at G810R mutant RET kinase, 80 nM. This molecule also registered an IC50 in assay [3] of 108 nM.
For `C[C@H](n1c2c(c3c(N)ncnc31)-c1noc(C3CC3)c1[C@@H](O)CC2)C(F)(F)F` (single isomer, unassigned) [Example 146, 2,2,2-trifluoroacetate], the IC50 on RET kinase V804M is 87 nM; against RET kinase Wild Type it was 26 nM; in assay [1], 98 nM; in assay [2], 63 nM; against G810S mutant RET kinase it was 116 nM; at G810R mutant RET kinase it was 43 nM. The molecule also displayed a 50% inhibitory concentration (IC50) in assay [3] of 68 nM.
As for `CC(C)n1c2c(c3c(N)ncnc31)-c1cc3ccc(C(=O)NC4CC4)cc3n1CCC2` [Example 87, 1-Amino-N-cyclopropyl-5-isopropyl-5,6,7,8-tetrahydropyrimido[5″,4″:4′,5′]pyrrolo[3′,2′:3,4]azepino[1,2-a]indole-11-carboxamide], the IC50 on RET kinase V804M came to 5780 nM; at RET kinase Wild Type, 47 nM; in assay [1], 89 nM; in assay [2] it was 32 nM; at G810S mutant RET kinase it was 204 nM; against G810R mutant RET kinase, 202 nM. Besides, in assay [3], 71 nM corresponded to half-maximal inhibition (IC50).
Regarding `CC(n1c2c(c3c(N)ncnc31)-c1noc(C3CC3)c1C(O)CC2)C(F)(F)F` (stereo not shown) [Example 131, 11-Amino-3-cyclopropyl-7-(1,1,1-trifluoropropan-2-yl)-4,5,6,7-tetrahydroisoxazolo[4″,3″:6′,7′]cyclohepta[1′,2′:4,5]pyrrolo[2,3-d]pyrimidin-4-ol], the IC50 came out at 41 nM at RET kinase V804M; 14 nM at RET kinase Wild Type; 30 nM in assay [1]; 14 nM in assay [2]; 18 nM against G810S mutant RET kinase; 97 nM against G810R mutant RET kinase. In assay [3], this molecule yielded a 50% inhibitory concentration (IC50) of 60 nM.
Take `Nc1ncnc2c1c1c(n2C2CCCC2)CCC(O)c2c-1noc2C1CC1` (single isomer, unassigned) [Example 124]: the IC50 at RET kinase V804M was found to be 80 nM; against RET kinase Wild Type, 24 nM; in assay [1], 44 nM; in assay [2], 19 nM; against G810S mutant RET kinase it was 49 nM; against G810R mutant RET kinase it was 89 nM. In assay [3], this molecule came in with a concentration for half-maximal inhibition (IC50) of 33 nM.
For the molecule `CC(C)n1c2c(c3c(N)ncnc31)-c1noc(C3CC3)c1[C@@H](O)[C@H](C)C2` (relative stereo) [Example 62, (Trans)-11-amino-3-cyclopropyl-7-isopropyl-5-methyl-4,5,6,7-tetrahydroisoxazolo[4″,3″:6′,7′]cyclohepta[1′,2′:4,5]pyrrolo[2,3-d]pyrimidin-4-ol], the IC50 was found to be 138 nM at RET kinase V804M; 34 nM against RET kinase Wild Type; 349 nM in assay [1]; 52 nM in assay [2]; 74 nM against G810S mutant RET kinase; 96 nM at G810R mutant RET kinase. The concentration for half-maximal inhibition (IC50) in assay [3] was 192 nM.
For the molecule `CC(C)n1c2c(c3c(N)ncnc31)-c1noc(C3CC3)c1C(=O)N(C)C2` [Example 20, 11-amino-3-cyclopropyl-7-isopropyl-5-methyl-6,7-dihydroisoxazolo[4,3-c]pyrimido[5′,4′:4,5]pyrrolo[3,2-e]azepin-4(5H)-one], the concentration for half-maximal inhibition (IC50) was found to be 254 nM on RET kinase V804M; 53 nM against RET kinase Wild Type; 160 nM in assay [1]; 28 nM in assay [2]; 123 nM against G810S mutant RET kinase; 135 nM on G810R mutant RET kinase. The concentration for half-maximal inhibition (IC50) in assay [3] was 111 nM.
Turning to `CC1(n2c3c(c4c(N)ncnc42)-c2noc(C4CC4)c2[C@H](O)CC3)CC1` [Example 150, (R)-11-Amino-3-cyclopropyl-7-(1-methylcyclopropyl)-4,5,6,7-tetrahydroisoxazolo[4″,3″:6′,7′]cyclohepta[1′,2′:4,5]pyrrolo[2,3-d]pyrimidin-4-ol], the IC50 at RET kinase V804M amounted to 15 nM; at RET kinase Wild Type it was 12 nM; in assay [1] it was 40 nM; in assay [2] it was 4 nM; against G810S mutant RET kinase, 46 nM; on G810R mutant RET kinase it was 84 nM. The IC50 in assay [3] was determined as 18 nM.
Regarding `Nc1ncnc2c1c1c(n2C(CF)CF)CC[C@H](O)c2c-1noc2C1CC1` (single isomer, unassigned) [Example 126], the IC50 was determined as 30 nM on RET kinase V804M; 6 nM on RET kinase Wild Type; 29 nM in assay [1]; 5 nM in assay [2]; 9 nM against G810S mutant RET kinase; 15 nM against G810R mutant RET kinase. In assay [3], half-maximal inhibition (IC50) was put at 26 nM.
As to `CO[C@@H]1CCc2c(c3c(N)ncnc3n2C2(C)CC2)-c2noc(C3CC3)c21` [Example 151, (R)-3-Cyclopropyl-4-methoxy-7-(1-methylcyclopropyl)-4,5,6,7-tetrahydroisoxazolo[4″,3″:6′,7]cyclohepta[1′,2′:4,5]pyrrolo[2,3-d]pyrimidin-11-amine], the IC50 at RET kinase V804M is 27 nM; at RET kinase Wild Type, 9 nM; in assay [1], 113 nM; in assay [2], 14 nM; against G810S mutant RET kinase, 55 nM; at G810R mutant RET kinase, 86 nM. In addition, the IC50 in assay [3] stood at 57 nM.
Turning to `CC(=O)N1Cc2c(noc2C2CC2)-c2c(n(C(C)C)c3ncnc(N)c23)C1` [Example 36, 1-(11-amino-3-cyclopropyl-7-isopropyl-6,7-dihydroisoxazolo[4,3-c]pyrimido[5′,4′:4,5]pyrrolo[3,2-e]azepin-5(4H)-yl)ethan-1-one 2,2,2-trifluoroacetate], the IC50 at RET kinase V804M was 235 nM; on RET kinase Wild Type it was 58 nM; in assay [1] it was 144 nM; in assay [2], 53 nM; at G810S mutant RET kinase, 217 nM; against G810R mutant RET kinase it was 130 nM. Besides, half-maximal inhibition in assay [3] (IC50) required 255 nM.

Broadly, the IC50 is the concentration that gives 50% inhibition.
